Tests used:
Assay in all cases: Inhibition of cell proliferation (MTT)
Type in all cases: cell-based
[1] = test system: TF-1; settings: Homo sapiens; TF-1, Leukemia; 48 hours
Method: (§1) Inhibition of cell proliferation is determined in human tumor cell lines. Innoculation density and doubling times for specific cell lines are listed at World Wide Web URL “dtp.nci.nih.gov/docs/misc/common_files/cell_list.html.”
(§2) • 1. Plate adherent cells the day before starting the experiment in 180 μl growth media (see list hereafter). • 2. Day of experiment, count and plate suspension cells in 180 μl growth media (see list on next page). • 3. Make 10× Compound, vehicle, and chemotherapeutic cocktail • a. Compound (1× to 10×) • i. 10 μM Compound to 100 μM • ii. 3 μM Compound to 30 μM • iii. 1 μM Compound to 10 μM • iv. 0.3 μM Compound to 3 μM • v. 0.1 μM Compound to 1 μM • b. Vehicle • i. PBS, equivalent to the volume used for 10 μM Compound (1× is ˜0.06% PBS) • c. Chemotherapeutic cocktail (1× to 10×): • i. 1 μM Velcade to 10 μM • ii. 100 μM Etoposide to 1 mM • iii. 20 μM Taxol to 200 μM • 4. Add 20 μl of the 10× compound/vehicle/chemotherapeutic cocktail to cells. • 5. Incubate at 37° C., 5% CO2 for 48 hours. • 6. Aspirate media. For suspension cells, spin plate at 1500 RPM for 10 minutes. Use a multichannel pipettor to slowly remove media. • 7. Add 200 μl of Thiazolyl Blue Tetrazolium Bromide (MTT) to each well: 0.863 mg/ml MTT in growth media.
(§3) Proliferation of several cancer cells was inhibited by compound TA1-1B (which is a particular mixture of the isomers represented by TA1-1A), as shown in the following table (Table 1). The value EC50 is the amount of Compound TA1-1B that results in 50% inhibition of proliferation of the indicated cell type.

[2] = test system: P116; settings: Homo sapiens; P116, Leukemia; 48 hours
Method: as §1, §2, §3

[3] = test system: IGROV1; settings: Homo sapiens, IGROV-1; IGROV1, Ovarian; 48 hours
Method: as §1, §2, §3

[4] = test system: HH; settings: Homo sapiens, Lymphoma, 48 hours
Method: as §1, §2, §3

[5] = test system: I 9.2; settings: Homo sapiens; I 9.2, Leukemia; 48 hours
Method: as §1, §2, §3

[6] = test system: UO-31; settings: Homo sapiens; UO-31, Renal; 48 hours
Method: as §1, §2, §3

[7] = test system: UACC-257; settings: Homo sapiens; UACC-257, Melanoma; 48 hours
Method: as §1, §2, §3

[8] = test system: Namalwa; settings: Homo sapiens, Lymphoma, 48 hours
Method: as §1, §2, §3

[9] = test system: OVCAR-4; settings: Homo sapiens; OVCAR-4, Ovarian; 48 hours
Method: as §1, §2, §3

[10] = test system: THP-1; settings: Homo sapiens; THP-1, Leukemia; 48 hours
Method: as §1, §2, §3

[11] = test system: NCI/ADR-RES; settings: Homo sapiens, Breast, 48 hours
Method: as §1, §2, §3

[12] = test system: SUDHL4; settings: Homo sapiens, SU-DHL-4; SUDHL4, Lymphoma; 48 hours
Method: as §1, §2, §3

[13] = test system: EKVX; settings: Homo sapiens, Non Small Cell Lung, 48 hours
Method: as §1, §2, §3

[14] = test system: T-47D; settings: Homo sapiens, T47D, Breast, 48 hours
Method: as §1, §2, §3

[15] = test system: JM1; settings: Homo sapiens; JM1, Lymphoma; 48 hours
Method: as §1, §2, §3

[16] = test system: HT; settings: Homo sapiens, Lymphoma, 48 hours
Method: as §1, §2, §3

[17] = test system: SN12C; settings: Homo sapiens, Renal, 48 hours
Method: as §1, §2, §3

[18] = test system: KM12; settings: Homo sapiens; KM12, Colon; 48 hours
Method: as §1, §2, §3

[19] = test system: DOHH2; settings: Homo sapiens, DOHH-2; DOHH2, Lymphoma; 48 hours
Method: as §1, §2, §3

[20] = test system: HuT102; settings: Homo sapiens, HuT-102; HuT102, Lymphoma; 48 hours
Method: as §1, §2, §3

[21] = test system: J45-01; settings: Homo sapiens; J45-01, Leukemia; 48 hours
Method: as §1, §2, §3

[22] = test system: Ku-812; settings: Homo sapiens, KU812; Ku-812, Leukemia; 48 hours
Method: as §1, §2, §3

[23] = test system: MOLT-4; settings: Homo sapiens; MOLT-4, Leukemia; 48 hours
Method: as §1, §2, §3

[24] = test system: Jurkat; settings: Homo sapiens, Leukemia, 48 hours
Method: as §1, §2, §3

[25] = test system: RS1184; settings: Homo sapiens; RS1184, Lymphoma; 48 hours
Method: as §1, §2, §3

[26] = test system: SF-539; settings: Homo sapiens; SF-539, CNS; 48 hours
Method: as §1, §2, §3

[27] = test system: Hs602; settings: Homo sapiens; Hs602, Lymphoma; 48 hours
Method: as §1, §2, §3

[28] = test system: Daudi; settings: Homo sapiens, Lymphoma, 48 hours
Method: as §1, §2, §3

[29] = test system: Hut78; settings: Homo sapiens; Hut78, Lymphoma; 48 hours
Method: as §1, §2, §3

[30] = test system: NK92MI; settings: Homo sapiens, Lymphoma, 48 hours
Method: as §1, §2, §3

[31] = test system: RS4-11; settings: Homo sapiens; RS4-11, Leukemia; 48 hours
Method: as §1, §2, §3

[32] = test system: PC-3; settings: Homo sapiens; PC-3, Prostate; 48 hours
Method: as §1, §2, §3

Compound `CN1CCC[C@H]1CCNC(=O)c1cn2c3c(c(N4CCC(c5cnccn5)C4)c(F)cc3c1=O)Oc1cc3ccccc3cc1-2` (some centres unmarked) [TA1-1B] has an EC50 [1] of 5460 nM, an EC50 [2] of 1230 nM and an EC50 [3] of 4440 nM. It also gave an EC50 [4] of 4040 nM, an EC50 [5] of 3690 nM and an EC50 [6] of 2380 nM. The EC50 [7] was 5100 nM, the EC50 [8] was 1420 nM and the EC50 [9] was 2960 nM. It also gave an EC50 [10] of 3180 nM, an EC50 [11] of 1620 nM and an EC50 [12] of 1340 nM. For the same compound, the EC50 [13] was 5670 nM, the EC50 [14] was 6560 nM and the EC50 [15] was 2230 nM. For the same compound, the EC50 [16] was 2440 nM, the EC50 [17] was 4160 nM and the EC50 [18] was 3060 nM. For the same compound, the EC50 [19] was 1560 nM, the EC50 [20] was 1050 nM and the EC50 [21] was 1890 nM. It also gave an EC50 [22] of 4190 nM, an EC50 [23] of 1210 nM and an EC50 [24] of 1210 nM. The EC50 [25] was 3250 nM, the EC50 [26] was 1110 nM and the EC50 [27] was 1280 nM. It also gave an EC50 [28] of 1290 nM, an EC50 [29] of 3300 nM and an EC50 [30] of 1300 nM. For the same compound, the EC50 [31] was 550 nM and the EC50 [32] was 4960 nM.

Reference: US20080318938A1, “METHODS FOR TREATING ABERRANT CELL PROLIFERATION DISORDERS” (priority 2007, published 2008)
